# Results published in patent publication US11590119B2, “(S)-2-(1-(5-(cyclohexylcarbamoyl)-6-(propylthio)pyridin-2-yl)piperidin-3-yl)acetic acid for use in medicine” (University of Leeds, priority 2019, dated 2023).
# Key:
# skin wounds [1] = experiment: Phase II trial in T2DM: wound gap diameter of punch biopsy wounds by OCT; format: in vivo, human
# Text: FIG. 13: Wound healing in placebo (PBO) and AZD4017 (AZD) treated cohorts as evidenced by wound gap diameter of wounds inflicted at days 0 and 28 at days 2 and 30, respectively. Confidence intervals for measurements are provided to right.
# Both biopsies from visit 1 (day 0) and two biopsies from visit 4 (day 28) were imaged by OCT at Visits 2, 3, 5 and 6 as appropriate. Optical coherence tomography OCT (Greaves, N. S., et al., Br J Dermatol, 2014. 170(4): p. 840-50) has proven a useful tool for the evaluation of wound re-epithelialization. OCT uses light to capture sub-micrometre resolution, three-dimensional images from within biological tissue (e.g. skin). The method is based on low-coherence interferometry, typically employing near-infrared light. The use of relatively long wavelength light allows it to penetrate 1-2 mm into the tissue. In addition to wound diameter, collected images capture information on vascularization.
# The procedure takes approximately 2 minutes using a small probe applied to the skin. The procedure is non-invasive and pain-free. Image files (including enrolment number, visit number and date) were stored on the OCT machine until the end of the trial, then transferred to a secure server, compiled, analysed and values for wound diameter entered into the case report form (CRF).
# The initial wounds created by puncture at days 0 and 28, respectively, were 3 mm in diameter. Treatment with AZD4017 (400 mg, twice daily oral) was initiated on day 0 and maintained for 35 days.
# Thus administration of AZD4017 […] delivered a significant improvement in the rate of wound healing.
# skin wounds [2] = experiment: Phase II trial in T2DM: deep learning segmentation of OCT wound images; format: in vivo, human; conditions: day 30, 2 days after wounding at day 28, p<0.05
# Text: FIG. 17: 2D OCT image of wound segmented into compartments. i) void; ii) intact tissue; iii) wound collagen; iv) wound with sponginess morphology; v) neoepidermis; vi) clot & vii) blood (in liquid form).
# FIG. 18: Figure illustrating the improved amount of A) neoepidermis and B) clot volume two days after wounding and after 30 days of treatment with AZD4017 (AZD) and placebo (PBO).
# To further understand the effects of AZD4017 in the wound healing process a deep learning based image processing method was developed for recognising different sub-tissue components from optical coherence tomography (OCT) images. The method was based on a u-net convolutional neural network (see Ronneberger O., Fischer P., Brox T. (2015) U-Net: Convolutional Networks for Biomedical Image Segmentation. In: Navab N., Hornegger J., Wells W., Frangi A. (eds) Medical Image Computing and Computer-Assisted Intervention—MICCAI 2015. MICCAI 2015. Lecture Notes in Computer Science, vol 9351. Springer, Cham. https://doi.org/10.1007/978-3-319-24574-4_28). […]
# Further morphological image processing was then performed to the labelled image as post processing processes to show meaningful continuous regions of sub-tissue components. As a result, the area (mm^2) of each sub-tissue components could be calculated. In addition the volume (mm^3) of each sub-tissue components across 120 slices of tissues were also determined. […]
# [3] = test system: fibroblasts and endothelial cell co-culture; experiment: Angiogenesis co-culture assay with HDF conditioned media (tube length, branch points); format: cell-based, human; conditions: conditioned media of HDFs treated with IL-1β+200 nM cortisone+1 μM AZD4017, 7 days in culture
# Experimental: In order to further study the effects of AZD4017 on angiogenesis in a quantitative manner, a further related experiment to that described above was performed. In this model in vitro cultured human dermal fibroblasts were treated with a) 10 ng/ml IL-1β, b) IL-1β+100 nM cortisol, c) IL-1β+200 nM cortisone or d) IL-1β+cortisone+1 μM AZD4017 (selective 11β-HSD1 inhibitor).
smiles,measurement,setting,value
"CCCSc1nc(N2CCC[C@@H](CC(=O)O)C2)ccc1C(=O)NC1CCCCC1 [AZD4017, (S)-2-(1-(5-(cyclohexylcarbamoyl)-6-(propylthio)pyridin-2-yl)piperidin-3-yl)acetic acid]",mean wound gap diameter,"skin wounds [1]; day 2, 3 mm wound inflicted at day 0, 400 mg twice daily oral from day 0",0.98 mm
same,improvement in the extent of healing relative to placebo arm,"skin wounds [1]; day 2, wound inflicted at day 0",35%
same,mean wound gap,"skin wounds [1]; day 30, 3 mm wound inflicted at day 28, after 4 weeks pretreatment",0.67 mm
same,improvement in the extent of healing relative to placebo arm,"skin wounds [1]; day 30, wound inflicted at day 28",55%
same,volume of clots in the wound site compared to placebo,skin wounds [2],statistical significant increases
same,volume of neoepidermis in the wound site compared to placebo,skin wounds [2],statistical significant increases
same,"IL-1β stimulated tube formation (tube length, number of branch points)",[3],decreased the negative effects of cortisone/cortisol
